Reference: US20110263454A1, “Methods of Identifying Functional Characteristics of Promoters, Transcription Modifying Proteins and Transcription Modulating Agents” (Salk Institute for Biological Studies, priority 2008, published 2011)

How the values were obtained:
mUCP3 promoter = assay: NHR-promoter luciferase screen, mUCP3 promoter; type: cell-based, mouse; details: for Normalized Luc. act., normalized to control / Luc. act., normalized to lacZ: mUCP3 promoter reporter; for Normalized Luc. act., normalized to control: HR without or with its ligand, relative to control; for Luc. act., normalized to lacZ: hormone receptor (HR) without or with its ligand; for mUCP3 promoter reporter activity: transcription factor +/- ligand, control = 1.00
Description: (§1) The use, feasibility, and reproducibility of the functional NHR-promoter screen in a 48-well format have been tested validated. Briefly, there were co-expressed 50 ng of each NHR/NHR homodimer or NHR/RXR heterodimer with 100 ng promoter/luciferase construct and 50 ng of LacZ (as a control for transfection efficiency) in CV-1 cells using Fugene HD (Roche) as a transfection reagent (alternatively or additionally, a CMV-YFP construct can be used as a transfection control). Each of the nuclear hormone receptors that were used in these experiments was cloned into a pcDNA3.1 vector and comprised a C-terminally linked V5H6 tag. Twenty-four hours after transfection, appropriate ligands were added, where applicable, (see Table 5 for various ligands and concentrations and after 48 hrs, samples were assayed for luciferase and LacZ activity. To measure for luciferase activity 15 ul of sample was added to 30 ul of luciferase buffer (20 mM tricine, 1.07 mM MgCarbonate, 2.67 mM MgSulfate, 0.1 mM Naz-EDTA, 5 mM DTT, 5 mM ATP, 0.15 mg/ml CoA, 0.5 mM Luciferin), mixed briefly, and run in a Perkin Elmer Victor 5 luminometer. Thus, the functional NHR-promoter screen was used to observe the transcriptional activity of 29 promoters from various physiological pathways including inflammation, lipid and sugar metabolism, cholesterol transport, xenobiotic metabolism, and circadian rhythm.
(§2) The promoters that facilitate transcription of the indicated gene products that were tested using the protocols described herein are listed in the first row of the table. The nuclear hormone receptors and, where applicable, ligands that were assayed for their transcriptional effects on the promoters are listed in the first column of the table. The data represent the luciferase activity of each sample normalized to both the lacZ activity of that sample and to a control, e.g., no NHR or ligand, as customary in the art. As described previously, these normalizations allow the transcriptional activity of each reporter cell to be compared to other samples.
(§3) Tables 7-40 show the transcriptional effects of the hormone receptors, and, where applicable, ligands (orphan receptors are screened without ligand), on each individual promoter. […] The control data of each table are shown in their last rows.

hTNFa promoter = assay: NHR-promoter luciferase screen, hTNFa promoter; type: cell-based, human; details: for Luc. act., normalized to lacZ / Normalized Luc. act., normalized to control: TNFa promoter, HR component without or with ligand; for hTNFa promoter reporter activity: transcription factor +/- ligand, control = 1.00
Description: as §1, §2, §3

mPer1 promoter = assay: NHR-promoter luciferase screen, mPer1 promoter; type: cell-based, mouse; details: for Luc. act., normalized to lacZ / Normalized Luc. act., normalized to control: Per1 promoter reporter, co-transfected HR, with or without its ligand; for Normalized Luc. act., normalized to control: relative to control; for luciferase activity normalized to lacZ activity and to a control, mPer1: mPer1 promoter-luciferase, CV-1 cells, NHR +/- ligand, control = 1.00
Description: as §1, §2, §3

mLeptin promoter = assay: NHR-promoter luciferase screen, mLeptin promoter; type: cell-based, mouse; details: for Luc. act., normalized to lacZ / Normalized Luc. act., normalized to control: Table 7, mLeptin; for Results of assays of transcription factor (+/- ligand) with mLeptin: Table 6d, luciferase activity relative to control (control = 1.00); for luciferase/LacZ, mLeptin (selected results): mLeptin promoter-luciferase, NHR +/- ligand, control = 1.0
Description: as §1, §2, §3

mUCP1 promoter = assay: NHR-promoter luciferase screen, mUCP1 promoter; type: cell-based, mouse; details: for Luc. act., normalized to lacZ / Normalized Luc. act., normalized to control: mUCP1 promoter reporter, co-transfected HR, with or without its ligand; for Normalized Luc. act., normalized to control: relative to control; for luciferase activity normalized to lacZ activity and to a control, mUCP!: mUCP! promoter-luciferase, CV-1 cells, NHR +/- ligand, control = 1.00
Description: as §1, §2, §3

hMDR1 promoter = assay: NHR-promoter luciferase screen, hMDR1 promoter; type: cell-based, human; details: for Luc. act., normalized to lacZ / Normalized Luc. act., normalized to control: MDR1 promoter, HR/ligand component; for hMDR1 promoter reporter activity: transcription factor +/- ligand, control = 1.00
Description: as §1, §2, §3

Substance | Normalized Luc. act., normalized to control (mUCP3 promoter) | Luc. act., normalized to lacZ (mUCP3 promoter) | mUCP3 promoter reporter activity (mUCP3 promoter) | Luc. act., normalized to lacZ (hTNFa promoter) | Normalized Luc. act., normalized to control (hTNFa promoter) | hTNFa promoter reporter activity (hTNFa promoter) | Luc. act., normalized to lacZ (mPer1 promoter) | Normalized Luc. act., normalized to control (mPer1 promoter) | luciferase activity normalized to lacZ activity and to a control, mPer1 (mPer1 promoter) | Luc. act., normalized to lacZ (mLeptin promoter) | Normalized Luc. act., normalized to control (mLeptin promoter) | Results of assays of transcription factor (+/- ligand) with mLeptin (mLeptin promoter) | Luc. act., normalized to lacZ (mUCP1 promoter) | Normalized Luc. act., normalized to control (mUCP1 promoter) | luciferase activity normalized to lacZ activity and to a control, mUCP! (mUCP1 promoter) | Luc. act., normalized to lacZ (hMDR1 promoter) | Normalized Luc. act., normalized to control (hMDR1 promoter) | hMDR1 promoter reporter activity (hMDR1 promoter) | luciferase/LacZ, mLeptin (selected results) (mLeptin promoter)
AR: Androsterone Receptor (NR3C4), cDNA driver | 2.5 | 1.69 | 2.50 | 1019.9 | 1.0 | 1.04 | 123.5 | 0.9 | 0.86 | 2.5 | 0.8 | 0.84 | 3.3 | 0.7 | 0.74 | 0.2 | 0.6 | 0.60 | –
ERR1: Estrogen Related Receptor α (NR3B1, ERRa), cDNA driver | 1.5 | 1.0 | 1.47 | 1234.7 | 1.3 | 1.26 | 197.1 | 1.4 | 1.37 | 2.6 | 0.9 | 0.88 | 3.9 | 0.9 | 0.88 | 0.4 | 1.2 | 1.20 | –
GR: Glucocorticoid Receptor (NR3C1), cDNA driver | 0.9 | 0.59 | 0.88 | 463.3 | 0.5 | 0.47 | 384.1 | 2.7 | 2.67 | 1.7 | 0.6 | 0.58 | 1.9 | 0.4 | 0.42 | 0.1 | 0.4 | 0.39 | 0.6
LXRa: Liver X Receptor α (NR1H3), cDNA driver | 1.6 | 1.1 | 1.58 | 994.6 | 1.0 | 1.01 | 100.6 | 0.7 | 0.70 | 1.9 | 0.7 | 0.65 | 3.1 | 0.7 | 0.69 | 0.2 | 0.5 | 0.51 | –
NR4a1: NR4a1 (NR4A1; NUR77), nuclear hormone receptor cDNA driver | 2.1 | 1.40 | 2.07 | 1575.8 | 1.6 | 1.60 | 503.5 | 3.5 | 3.50 | 2.3 | 0.8 | 0.80 | 7.6 | 1.7 | 1.70 | 0.4 | 1.3 | 1.29 | 0.8
PNR: Photoreceptor-specific Nuclear Receptor (NR2E3), cDNA driver | 0.8 | 0.5 | 0.79 | 558.4 | 0.6 | 0.57 | 93.4 | 0.6 | 0.65 | 2.0 | 0.7 | 0.68 | 1.7 | 0.4 | 0.37 | 0.2 | 0.5 | 0.52 | –
PPARa: Peroxisome proliferator activated receptor α (NR1C1), cDNA driver | 2.1 | 1.5 | 2.15 | 1107.9 | 1.1 | 1.13 | 180.7 | 1.3 | 1.25 | 2.4 | 0.8 | 0.81 | 2.6 | 0.6 | 0.59 | 0.2 | 0.5 | 0.51 | –
PPARg: Peroxisome proliferator activated receptor γ (NR1C3), cDNA driver | 1.8 | 1.2 | 1.83 | 1345.4 | 1.4 | 1.37 | 154.5 | 1.1 | 1.07 | 2.9 | 1.0 | 1.00 | 2.9 | 0.7 | 0.66 | 0.3 | 0.8 | 0.83 | 1.0
RXRa: Retinoic X Receptor α (NR2B1), cDNA driver | 1.3 | 0.9 | 1.27 | 954.8 | 1.0 | 0.97 | 75.8 | 0.5 | 0.53 | 2.3 | 0.8 | 0.77 | 2.9 | 0.7 | 0.66 | 0.2 | 0.5 | 0.51 | –
SF-1: Steroidogenic Factor 1 (NR5A1, SF1), cDNA driver | 5.5 | 3.7 | 5.46 | 1900.9 | 1.9 | 1.93 | 536.5 | 3.7 | 3.73 | 4.7 | 1.6 | 1.60 | 11.3 | 2.5 | 2.54 | 0.7 | 2.4 | 2.36 | –
TLX: Tailless (homolog of drosophila) (NR2E1), cDNA driver | 1.1 | 0.8 | 1.11 | 1085.1 | 1.1 | 1.10 | 217.6 | 1.5 | 1.51 | 2.6 | 0.9 | 0.89 | 2.8 | 0.6 | 0.63 | 0.2 | 0.7 | 0.70 | –
